Laboratory results taken from ChEMBL document CHEMBL1166004, “Microbial transformations of the taxan ring of 10-DAB by some strains of the fungus Curvularia lunata: formation of the bis-abeotaxanes wallifoliol and 4-deacylwallifoliol” (J Nat Prod, 2010).

Tested on: NCI-H460
Experiment: Cytotoxicity against human H460 cells
Format: functional, cell-based

Structure (SMILES)	IC50 [µM]
CC(=O)O[C@@]12CO[C@@H]1C[C@H](O)[C@]1(C)[C@@H]2[C@H](OC(=O)c2ccccc2)[C@]23C[C@H](O)C(C)=C2[C@@]1(O)C(=O)OC3(C)C [WALLIFOLIOL]	68
CC1=C2[C@]3(O)C(=O)OC(C)(C)[C@]2(C[C@@H]1O)[C@@H](OC(=O)c1ccccc1)[C@@H]1[C@]2(O)CO[C@@H]2C[C@H](O)[C@]13C	103
